Laboratory results from EP0525814A1, “Use of di-tertbutylhydroxyphenyl derivatives for the therapy of inflammatory conditions of the gastrointestinal tract” (BOEHRINGER MANNHEIM GMBH, priority 1991, dated 1993).

Test system: Akute Kolitis
Test: Acetic acid-induced acute colitis in rats, morphological evaluation of the mucosa by image analysis
Type: in vivo, Ratten
Details: rat, 3 x 200 mg/kg p.o.; for Anteil von Mukosabereichen Schädigungsstufe 0 (ohne Befund) an der Gesamtfläche des untersuchten Darmbereichs / Anteil von Mukosabereichen Schädigungsstufe 1 (Schwellung des Gewebes mit leichter Rötung) an der Gesamtfläche des untersuchten Darmbereichs / Anteil von Mukosabereichen Schädigungsstufe 2 (starke Rötung des Gewebes mit Einblutungen oder ulcerierenden Nekrosen) an der Gesamtfläche des untersuchten Darmbereichs: rectum and parts of distal colon, 3 days after induction with 5% acetic acid, mean ± spread
[1] = change versus control in words, p<0,01

Method: Beispiel 1 und Probucol wurden in einer Dosierung von 200 mg/kg/d 3 mal oral verabreicht. Die Behandlung wurde einen Tag vor Entzündungsinduktion mit 5% Essigsäure begonnen. […] Das Ausmaß einer entzündlichen Reaktion im Darm wird durch Begutachtung des Mukosa-Zustandes und Klassifizierung nach festgelegten Parametern bestimmt.
Akute Kolitis wurde bei 24 h nüchternen Ratten durch rektale Instillation von 5% Essigsäure (1,5ml/Tier) über eine 8 cm lange Sonde induziert. Die morphologische Auswertung des Mukosazustandes aus dem Rektum und Teilen des distalen Kolons (ca. 8 cm) erfolgte am 3. Tag nach Entzündungsinduktion, nachdem die Tiere getötet worden waren. Beispiel 1 und Probucol wurden in einer Dosierung von 200 mg/kg/d 3 mal p.o. (2,5 ml/kg) verabreicht. Die erste Gabe erfolgte 24 h vor Essigsäure-Applikation. Kontrolltieren wurde das Substanzlösungsmittel (20% DMSO in Öl) verabreicht.
Die morphologische Auswertung erfolgte an einem computergeschützten Bildanalyse-System. Es wurde der Anteil von entzündetem Gewebe an der Gesamtdarmoberfläche bestimmt. Folgende Schädigungsstufen wurden unterschieden: • - Stufe 0 : ohne Befund • - Stufe 1 : Schwellung des Gewebes mit leichter Rötung • - Stufe 2 : starke Rötung des Gewebes mit Einblutungen oder ulcerierenden Nekrosen

| Structure (SMILES) | Anteil von Mukosabereichen Schädigungsstufe 0 (ohne Befund) an der Gesamtfläche des untersuchten Darmbereichs | Anteil von Mukosabereichen Schädigungsstufe 1 (Schwellung des Gewebes mit leichter Rötung) an der Gesamtfläche des untersuchten Darmbereichs | Anteil von Mukosabereichen Schädigungsstufe 2 (starke Rötung des Gewebes mit Einblutungen oder ulcerierenden Nekrosen) an der Gesamtfläche des untersuchten Darmbereichs | nur noch geschwollene Gewebebereiche (Schädigungsstufe 1) [1] | stark geschädigte Darmanteile (Schädigungsstufe 2) [1] | größere, morphologisch normale Gewebebereiche (Schädigungsstufe 0) (result in words, p<0,01 versus control) | Einfluß auf die durch Essigsäure-Applikation hervorgerufenen Mukosaschädigungen (result in words) |
| --- | --- | --- | --- | --- | --- | --- | --- |
| CC(C)(C)c1cc(CCNC(=O)CCc2cc(C(C)(C)C)c(O)c(C(C)(C)C)c2)cc(C(C)(C)C)c1O [Beispiel 1] | 17,20 ± 8,93 % | 66,96 ± 8,31 % | 15,75 ± 6,24 % | Zunahme | deutlicher Abnahme | nachweisbar | – |
| CC(C)(Sc1cc(C(C)(C)C)c(O)c(C(C)(C)C)c1)Sc1cc(C(C)(C)C)c(O)c(C(C)(C)C)c1 [Probucol, reference compound] | 0,12 ± 0,09% | 52,78 ± 9,36% | 47,19 ± 9,36% | – | – | – | keinen Einfluß |
